According to ChEMBL document CHEMBL4118122, “Identification and biological evaluation of thiazole-based inverse agonists of RORγt” (Bioorg Med Chem Lett, 2018):
pIC50, pKd: −log10 of the molar value.

Columns and labels:
[1] = target: Neuropeptide Y receptor type 1 (Homo sapiens) (UniProt P25929); assay: Displacement of [125I]peptide YY from human Y1 receptor at 10 uM after 120 mins by scintillation counting analysis relative to control
[2] = Initial plasma concentration in Sprague-Dawley rat at 1 mg/kg, iv; assay type: ADME, organism-based
[3] = target: 5-hydroxytryptamine receptor 1B (Rattus norvegicus, UniProt P28564); assay: Displacement of [125I]-CYP from rat brain 5-HT1B receptor after 120 mins by scintillation counting analysis
5-hydroxytryptamine receptor 1B, sequence (P28564 whole entry): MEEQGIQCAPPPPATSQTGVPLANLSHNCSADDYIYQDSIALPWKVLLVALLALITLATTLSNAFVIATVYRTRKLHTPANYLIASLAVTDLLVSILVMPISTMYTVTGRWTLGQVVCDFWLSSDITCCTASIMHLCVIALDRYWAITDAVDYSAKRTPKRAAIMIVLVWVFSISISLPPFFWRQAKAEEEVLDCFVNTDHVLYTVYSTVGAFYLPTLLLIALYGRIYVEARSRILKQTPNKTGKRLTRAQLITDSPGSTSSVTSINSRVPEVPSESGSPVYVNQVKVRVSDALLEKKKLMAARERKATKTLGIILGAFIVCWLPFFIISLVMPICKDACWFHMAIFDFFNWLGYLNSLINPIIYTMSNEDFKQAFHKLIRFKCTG

[4] = target: 5-hydroxytryptamine receptor 3A (Homo sapiens, UniProt P46098); assay: Displacement of [3H]BRL 43694 from human recombinant 5-HT3 receptor after 120 mins by scintillation counting analysis
5-hydroxytryptamine receptor 3A, sequence (P46098 whole entry): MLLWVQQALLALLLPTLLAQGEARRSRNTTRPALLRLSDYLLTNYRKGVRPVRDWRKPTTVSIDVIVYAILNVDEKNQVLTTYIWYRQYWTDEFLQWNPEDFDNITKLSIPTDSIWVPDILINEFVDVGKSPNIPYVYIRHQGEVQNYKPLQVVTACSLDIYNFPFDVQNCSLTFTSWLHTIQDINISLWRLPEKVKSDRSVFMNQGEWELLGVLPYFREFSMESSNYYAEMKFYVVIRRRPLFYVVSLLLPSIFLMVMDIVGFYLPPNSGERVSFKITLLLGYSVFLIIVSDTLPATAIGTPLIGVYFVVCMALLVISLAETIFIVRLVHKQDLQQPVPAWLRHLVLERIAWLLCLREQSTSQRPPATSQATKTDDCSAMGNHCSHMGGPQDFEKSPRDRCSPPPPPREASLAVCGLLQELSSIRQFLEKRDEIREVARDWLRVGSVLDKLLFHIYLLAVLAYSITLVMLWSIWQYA

[5] = target: Mitogen-activated protein kinase 12 (Homo sapiens) (UniProt P53778); assay: Inhibition of recombinant full length His-tagged human p38gamma expressed in baculovirus expression system at 10 uM in presence of ATP relative to control
Mitogen-activated protein kinase 12 (Homo sapiens), sequence (P53778 whole entry): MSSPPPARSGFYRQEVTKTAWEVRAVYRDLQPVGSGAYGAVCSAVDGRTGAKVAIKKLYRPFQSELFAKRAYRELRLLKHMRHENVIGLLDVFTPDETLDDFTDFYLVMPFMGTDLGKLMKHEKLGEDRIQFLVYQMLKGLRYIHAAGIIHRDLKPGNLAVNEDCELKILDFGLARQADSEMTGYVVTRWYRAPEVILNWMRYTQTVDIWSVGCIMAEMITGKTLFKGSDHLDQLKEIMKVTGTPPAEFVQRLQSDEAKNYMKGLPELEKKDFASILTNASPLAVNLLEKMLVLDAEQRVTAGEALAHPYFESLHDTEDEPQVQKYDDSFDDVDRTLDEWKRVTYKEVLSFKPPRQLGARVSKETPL

[6] = target: cAMP-dependent protein kinase catalytic subunit alpha (Homo sapiens) (UniProt P17612); assay: Inhibition of recombinant human His-tagged PRKACA expressed in Escherichia coli at 10 uM in presence of ATP relative to control
PXR (NR1I2) = target: T1, PXR (NR1I2) (Homo sapiens, UniProt O75469); assay: […] at PXR LBD (unknown origin) expressed in HEK293 cells […] at 10 uM after 16 hrs by luciferase reporter gene assay relative to rifampicin; assay type: ADME, cell-based; conditions: HEK293 cells expressing PXR LBD, read-out: Efficacy
T1 sequence (O75469 whole entry): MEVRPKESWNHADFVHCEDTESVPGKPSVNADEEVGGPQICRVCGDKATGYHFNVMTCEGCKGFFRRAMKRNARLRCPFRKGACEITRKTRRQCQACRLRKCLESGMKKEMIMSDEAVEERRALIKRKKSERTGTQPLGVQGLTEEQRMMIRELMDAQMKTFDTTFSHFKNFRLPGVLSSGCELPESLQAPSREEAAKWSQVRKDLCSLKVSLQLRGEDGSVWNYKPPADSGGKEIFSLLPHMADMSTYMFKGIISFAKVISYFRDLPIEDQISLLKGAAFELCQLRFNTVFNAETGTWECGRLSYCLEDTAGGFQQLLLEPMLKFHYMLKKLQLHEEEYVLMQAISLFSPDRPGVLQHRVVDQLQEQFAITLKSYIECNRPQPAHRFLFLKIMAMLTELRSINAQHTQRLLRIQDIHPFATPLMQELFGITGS

[7] = Binding affinity to GABA-gated chloride channel (unknown origin) by antagonist radioligand binding assay; parameters: species or system Homo sapiens
Histamine H1 receptor = Histamine H1 receptor (Homo sapiens, UniProt P35367); assay: Displacement of [3H]pyrilamine from human recombinant histamine H1 receptor at 1 uM after 60 mins by scintillation counting analysis relative to control
Histamine H1 receptor, sequence (P35367 whole entry): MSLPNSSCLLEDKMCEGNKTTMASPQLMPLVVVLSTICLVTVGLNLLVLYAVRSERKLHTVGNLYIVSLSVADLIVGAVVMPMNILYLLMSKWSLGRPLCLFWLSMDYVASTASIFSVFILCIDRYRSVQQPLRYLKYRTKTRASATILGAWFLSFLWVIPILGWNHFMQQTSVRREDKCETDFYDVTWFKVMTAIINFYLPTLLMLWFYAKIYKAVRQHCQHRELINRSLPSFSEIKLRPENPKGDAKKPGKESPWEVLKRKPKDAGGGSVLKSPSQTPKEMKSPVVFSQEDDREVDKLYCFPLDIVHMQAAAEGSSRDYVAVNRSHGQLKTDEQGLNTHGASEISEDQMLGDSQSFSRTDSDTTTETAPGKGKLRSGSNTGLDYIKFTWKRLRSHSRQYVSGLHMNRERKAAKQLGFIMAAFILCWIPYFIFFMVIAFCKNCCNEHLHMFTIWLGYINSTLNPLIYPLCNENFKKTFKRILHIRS

[8] = Terminal half life in Sprague-Dawley rat at 5 mg/kg, po; assay type: ADME, organism-based; conditions: in vivo, read-out: beta t1/2 (converted)
[9] = Half life in Sprague-Dawley rat at 1 mg/kg, iv; assay type: ADME, organism-based; conditions: in vivo
[10] = target: Vasoactive intestinal polypeptide receptor 1 (Homo sapiens) (UniProt P32241); assay: Displacement of [125I]VIP from human recombinant VPAC1 receptor at 10 uM after 60 mins by scintillation counting analysis relative to control
Vasoactive intestinal polypeptide receptor 1 (Homo sapiens), sequence (P32241 whole entry): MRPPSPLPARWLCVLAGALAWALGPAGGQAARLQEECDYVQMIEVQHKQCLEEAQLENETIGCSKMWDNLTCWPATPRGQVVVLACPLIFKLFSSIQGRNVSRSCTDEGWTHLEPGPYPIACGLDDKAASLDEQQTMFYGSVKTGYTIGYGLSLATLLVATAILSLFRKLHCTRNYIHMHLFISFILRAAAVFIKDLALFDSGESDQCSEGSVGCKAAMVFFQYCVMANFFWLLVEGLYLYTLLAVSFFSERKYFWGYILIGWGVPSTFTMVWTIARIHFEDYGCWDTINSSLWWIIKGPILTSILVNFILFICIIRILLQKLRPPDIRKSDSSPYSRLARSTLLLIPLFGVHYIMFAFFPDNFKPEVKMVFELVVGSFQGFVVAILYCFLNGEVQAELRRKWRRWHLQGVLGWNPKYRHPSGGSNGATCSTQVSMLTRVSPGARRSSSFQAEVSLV

[11] = target: 5-hydroxytryptamine receptor 3A (Homo sapiens) (UniProt P46098); assay: Displacement of [3H]BRL 43694 from human recombinant 5-HT3 receptor at 10 uM after 120 mins by scintillation counting analysis relative to control
5-hydroxytryptamine receptor 3A (Homo sapiens), sequence (P46098 whole entry, the tested form may be a part): as the sequence (P46098 whole entry) above

[12] = target: T2, Nuclear receptor ROR-beta (Homo sapiens, UniProt Q92753); assay: Binding affinity to recombinant human RORbeta LBD (201 to 452 residues) expressed in Escherichia coli BL21 (DE3) GOLD by 1,8-ANS dye-based thermofluor assay
T2 sequence (Q92753 whole entry): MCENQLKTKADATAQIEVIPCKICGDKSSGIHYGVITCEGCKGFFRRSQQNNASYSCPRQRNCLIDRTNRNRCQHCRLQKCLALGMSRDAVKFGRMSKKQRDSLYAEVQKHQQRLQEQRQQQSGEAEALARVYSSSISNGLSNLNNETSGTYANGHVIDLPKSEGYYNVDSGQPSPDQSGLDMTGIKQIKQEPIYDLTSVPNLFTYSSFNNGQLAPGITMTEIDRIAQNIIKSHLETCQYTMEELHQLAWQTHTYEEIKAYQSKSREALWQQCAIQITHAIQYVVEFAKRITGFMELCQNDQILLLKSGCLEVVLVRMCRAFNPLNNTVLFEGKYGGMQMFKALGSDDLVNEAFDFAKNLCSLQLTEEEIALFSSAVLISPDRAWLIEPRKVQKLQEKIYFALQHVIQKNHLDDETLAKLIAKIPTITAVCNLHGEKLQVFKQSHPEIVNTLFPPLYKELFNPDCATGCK

[13] = Half life in human microsomes; assay type: ADME, Microsome
[14] = target: Death-associated protein kinase 3 (Homo sapiens) (UniProt O43293); assay: Inhibition of recombinant full length GST-tagged human ZIPK expressed in baculovirus expression system at 10 uM in presence of ATP relative to control
Death-associated protein kinase 3 (Homo sapiens), sequence (O43293 whole entry, looked up, the tested form may be a part): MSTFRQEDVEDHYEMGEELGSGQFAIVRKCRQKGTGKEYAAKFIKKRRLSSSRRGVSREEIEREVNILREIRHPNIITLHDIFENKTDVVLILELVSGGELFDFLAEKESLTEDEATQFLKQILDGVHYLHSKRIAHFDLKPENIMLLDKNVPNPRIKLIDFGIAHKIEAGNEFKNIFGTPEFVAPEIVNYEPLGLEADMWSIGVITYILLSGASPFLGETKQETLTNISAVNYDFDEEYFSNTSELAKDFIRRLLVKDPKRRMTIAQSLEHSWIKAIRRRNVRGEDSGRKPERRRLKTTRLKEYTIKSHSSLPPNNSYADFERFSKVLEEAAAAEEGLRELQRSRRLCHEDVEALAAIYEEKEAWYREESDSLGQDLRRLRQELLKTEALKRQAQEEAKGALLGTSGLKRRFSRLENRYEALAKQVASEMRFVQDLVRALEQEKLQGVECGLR

[15] = target: T3, Nuclear receptor ROR-gamma (Homo sapiens, UniProt P51449); assay: Inverse agonist activity at human GAL4 DBD-fused RORgammat LBD (237 to 497 residues) expressed in HEK293T cells assessed as reduction in ROR mediated transcriptional activity after 24 hrs by dual glo luciferase reporter gene assay; assay type: cell-based
T3 sequence (P51449 whole entry): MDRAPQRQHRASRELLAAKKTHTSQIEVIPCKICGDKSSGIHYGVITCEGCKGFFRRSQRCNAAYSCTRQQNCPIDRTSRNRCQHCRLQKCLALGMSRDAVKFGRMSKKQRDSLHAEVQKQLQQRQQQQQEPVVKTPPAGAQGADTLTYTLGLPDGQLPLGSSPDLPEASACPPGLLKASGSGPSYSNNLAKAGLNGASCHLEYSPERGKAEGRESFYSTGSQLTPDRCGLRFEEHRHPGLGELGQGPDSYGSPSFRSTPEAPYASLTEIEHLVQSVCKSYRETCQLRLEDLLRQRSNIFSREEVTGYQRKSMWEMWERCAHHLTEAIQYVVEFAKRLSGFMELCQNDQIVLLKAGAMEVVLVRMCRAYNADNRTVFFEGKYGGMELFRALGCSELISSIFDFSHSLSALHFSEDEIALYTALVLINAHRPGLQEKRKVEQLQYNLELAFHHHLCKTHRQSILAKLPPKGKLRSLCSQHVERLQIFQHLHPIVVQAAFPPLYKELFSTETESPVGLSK

[16] = target: 5-hydroxytryptamine receptor 1A (Homo sapiens) (UniProt P08908); assay: Displacement of [3H]8-OH-DPAT from recombinant human 5-HT1A receptor at 1 uM after 60 mins by scintillation counting analysis relative to control
5-hydroxytryptamine receptor 1A (Homo sapiens), sequence (P08908 whole entry): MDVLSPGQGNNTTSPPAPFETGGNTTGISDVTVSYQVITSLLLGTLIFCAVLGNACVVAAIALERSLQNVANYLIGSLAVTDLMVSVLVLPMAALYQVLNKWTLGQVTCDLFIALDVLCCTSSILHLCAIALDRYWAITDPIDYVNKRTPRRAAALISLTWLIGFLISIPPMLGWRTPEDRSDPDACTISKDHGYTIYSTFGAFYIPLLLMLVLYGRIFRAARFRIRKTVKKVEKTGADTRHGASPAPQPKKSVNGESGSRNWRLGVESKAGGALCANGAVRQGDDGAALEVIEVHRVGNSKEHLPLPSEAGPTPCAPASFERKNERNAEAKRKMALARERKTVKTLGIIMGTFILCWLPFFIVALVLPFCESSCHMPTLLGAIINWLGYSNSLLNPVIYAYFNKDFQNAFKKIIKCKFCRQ

Somatostatin receptor = assay: Displacement of [125I]Tyr11-somatostatin-14 from mouse SST receptor after 60 mins by scintillation counting analysis; assay type: protein assay
Rattus norvegicus = species on record: Rattus norvegicus; assay: Displacement of [3H]batrachotoxinin from rat brain voltage gated sodium ion channel site 2 at 10 uM after 60 mins by scintillation counting analysis relative to control

Neuropeptide Y receptor type 1 (Homo sapiens), sequence (P25929 whole entry): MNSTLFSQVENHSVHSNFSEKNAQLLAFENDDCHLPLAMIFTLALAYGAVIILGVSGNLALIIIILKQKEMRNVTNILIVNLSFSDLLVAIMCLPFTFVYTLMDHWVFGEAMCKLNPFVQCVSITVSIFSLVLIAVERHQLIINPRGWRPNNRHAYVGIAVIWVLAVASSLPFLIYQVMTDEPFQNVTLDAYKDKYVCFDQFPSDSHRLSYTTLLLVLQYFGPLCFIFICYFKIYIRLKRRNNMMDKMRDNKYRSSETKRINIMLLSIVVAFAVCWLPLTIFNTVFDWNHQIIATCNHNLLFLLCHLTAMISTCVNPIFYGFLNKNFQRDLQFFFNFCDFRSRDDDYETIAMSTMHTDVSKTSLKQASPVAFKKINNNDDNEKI

SMILES: CC(C)(C)NS(=O)(=O)c1ccc(-c2sc(C(=O)N[C@H]3C[C@H](C(=O)O)C3)nc2CC2CCCCC2)c2ccccc12
- inhibition [1]: < 10%
- C0 [2]: 4430 ng/mL
- pIC50 [3]: 7.85
- pIC50 [4]: 8.31
- inhibition [5]: -2%
- inhibition [6]: -4%
- Emax at 16 h, 10 µM (PXR (NR1I2)): 195%
- pIC50 [7]: 6.66
- inhibition (Histamine H1 receptor): 11%
- half-life [8]: 2.1 h
- half-life [9]: 0.7 h
- inhibition [10]: < 10%
- inhibition [11]: 12%
- pKd [12]: 6.13
- half-life [13]: 1.25 h
- inhibition [14]: -5%
- pIC50 [15]: 9.03
- inhibition [16]: < 10%
- IC50 (Somatostatin receptor): 0.31 nM
- inhibition (Rattus norvegicus): 11%
